Data set [1] has as its system P. berghei-ANKA-GFP-LucCON liver stage parasites in HepG2-A16-CD81EGFP cells. Put plainly: P. berghei liver stage Pb-Luc assay, Method 1 (UCSD, 1536-well). The format is cell-based, Plasmodium berghei. The note with it: for activity at 1 µM / activity at 3 µM / AC50: Plasmodium berghei; for activity at 1 µM / activity at 3 µM: 48 h, average of 2 wells on a 1536 well plate; for activity at 1 µM: 1 uM (compounds provided at 10 mM); for activity at 3 µM: 3 uM (compounds provided at 10 mM); for Max Resp (signal direction of the dose response) / AC50: Method 1; for Max Resp (signal direction of the dose response): Decrease = decreasing P. berghei viability with dose, Increase = increasing signal, Inactive = no dose response.

In data set [2] the test system is Plasmodium falciparum Dd2 asexual blood stage parasites. As to the kind of experiment: microbe, parasite or virus in culture. Further details: species or system Plasmodium falciparum Dd2 in human erythrocytes; single determination (one 11-point concentration-response curve). The settings on record: Plasmodium falciparum, DD2, Erythrocyte, 72 h; read-out: AC50.
A short description of the next data set: in vitro. The settings on record: human.
Where [3] appears, read: column 11, read-out: Pb-Luc (P. berghei liver stage), % of control, lower concentration, first repeat.
The mark [4] stands for this setting: column 12, read-out: Pb-Luc (P. berghei liver stage), % of control, lower concentration, second repeat.
Where [5] appears, read: column 8, read-out: Pb-Luc (P. berghei liver stage), % of control, higher concentration, first repeat.
The mark [6] stands for this setting: column 9, read-out: Pb-Luc (P. berghei liver stage), % of control, higher concentration, second repeat.
The mark [7] stands for this setting: HepG2-A16-CD81EGFP cells, uninfected.
Setting [8] is: Hill fit, 50% of maximum activity response, read-out: AC50.
Setting [9] is: log10 of molar AC50 from Hill fit, read-out: Log AC50 (converted).

Read-outs that look alike come from different tables or passages of the source.

The AC50 is the concentration at which the activity in the assay is half-maximal. Usually viability stands for a read-out of living cells in per cent, often relative to untreated cells.

Consider `COc1cc2nc(Nc3ccc(C)c(Cl)c3)nc(N)c2cc1OC` [MLS001199666-01], for which the activity at 1 µM in data set [1] (setting [3]) turned out to be 99%; in data set [1] (setting [4]) it was 121%. For the same compound, the values for the activity at 3 µM in data set [1] (setting [5]) and in data set [1] (setting [6]) were 97% and 111%, respectively. The AC50 in data set [2] came out at 2.11 µM. For the same compound, in “in vitro” (setting [7]), the viability at 48 h, 1 µM turned out to be 109%. In the data set “in vitro” (setting [7]), the viability at 48 h, 3 µM was 100%.
For `COc1cccc(NC(=O)CN(C)C(=O)c2ccc(-c3ccc(Cl)cc3)o2)c1` [MLS001142098-01], the figures for the activity at 1 µM in data set [1] (setting [3]) and in data set [1] (setting [4]) were 146% and 155%, respectively. In addition, the activity at 3 µM in data set [1] (setting [5]) was found to be 150%; in data set [1] (setting [6]), 187%. For the same compound, the AC50 in data set [2] came out at 4.22 µM. In addition, the viability at 48 h, 1 µM in “in vitro” (setting [7]) stood at 100%. In addition, in “in vitro” (setting [7]), the viability at 48 h, 3 µM is 100%.
For `CCn1cc(C(=O)N[C@@H](CCSC)C(=O)NC(C)(C)CO)c(=O)c2cc3c(cc21)OCO3` [MLS001201727-01], the “Max Resp (signal direction of the dose response)” value (from here on “Max Resp”) in data set [1] is reported as “Inactive”. Moreover, in data set [2], the AC50 was determined as 2.99 µM. In the data set “in vitro” (setting [7]), the viability at 48 h came to 103% and the viability at 48 h, 1 µM is 103%.
As for `Cc1ccc(NC(=O)c2cc(C(=O)c3cc(Cl)ccc3O)cn(-c3ccc(C)cc3)c2=O)cc1` [MLS000374606-01], the activity at 1 µM came out at 98% in data set [1] (setting [3]) and 87% in data set [1] (setting [4]). Besides, the values for the activity at 3 µM in data set [1] (setting [5]) and in data set [1] (setting [6]) were 59% and 61%, respectively. Also, in data set [2], the AC50 is 0.422 µM. In addition, the viability at 48 h, 1 µM in the data set “in vitro” (setting [7]) was found to be 106%. The viability at 48 h, 3 µM in “in vitro” (setting [7]) came to 93%.
Turning to `COc1cc(O)c(C(CCN2CCCCC2)c2ccc3c(c2)OCO3)c(OC)c1` (centres unmarked) [MLS000879495-01], the activity at 1 µM in data set [1] (setting [3]) is 100%; in data set [1] (setting [4]), 116%. For the same compound, the activity at 3 µM in data set [1] (setting [5]) stood at 99%; in data set [1] (setting [6]) it was 98%. The concentration at half-maximal activity (AC50) in data set [2] is 1.33 µM. Besides, in the data set “in vitro” (setting [7]), the viability at 48 h, 1 µM is 113%. Moreover, the viability at 48 h, 3 µM in the data set “in vitro” (setting [7]) worked out at 94%.
For `NC1=NC[C@@H](Cc2ccc(O)cc2)N1CCCCC1CCCCC1` [MLS000888822-01], the values for the activity at 1 µM in data set [1] (setting [3]) and in data set [1] (setting [4]) were 90% and 82%, respectively. In addition, the results for the activity at 3 µM in data set [1] (setting [5]) and in data set [1] (setting [6]) were 35% and 46%, respectively. Moreover, the AC50 in data set [2] stood at 4.73 µM. Further, the viability at 48 h, 1 µM in “in vitro” (setting [7]) worked out at 116%. For the same compound, in the data set “in vitro” (setting [7]), the viability at 48 h, 3 µM was 94%.
With `Cn1c(S)nc2sc3c(c2c1=O)CCC(C(C)(C)C)C3` (centres unmarked) [MLS001198408-01], the activity at 1 µM in data set [1] (setting [3]) is 80%; in data set [1] (setting [4]), 94%. The activity at 3 µM was 69% in data set [1] (setting [5]) and 61% in data set [1] (setting [6]). Besides, in data set [2], the AC50 is 5.31 µM. For the same compound, in the data set “in vitro” (setting [7]), the viability at 48 h, 1 µM stood at 97%. In the data set “in vitro” (setting [7]), the viability at 48 h, 3 µM worked out at 107%.
Turning to `CCOC(=O)c1nnn(-c2nonc2-n2cccc2)c1CN1CCC(C(=O)OCC)CC1` [MLS000538888-01], the activity at 1 µM was found to be 103% in data set [1] (setting [3]) and 96% in data set [1] (setting [4]). Also, the activity at 3 µM stood at 92% in data set [1] (setting [5]) and 82% in data set [1] (setting [6]). Further, in data set [2], the AC50 is 4.73 µM. Moreover, the viability at 48 h, 1 µM in “in vitro” (setting [7]) amounted to 108%. Further, in the data set “in vitro” (setting [7]), the viability at 48 h, 3 µM was 103%.
For `Cc1ccc(/C=N/NC(=O)c2cc3ccccc3cc2O)o1` [MLS001219838-01], the “Max Resp” value in data set [1] is given as “Decrease”. Besides, the values for the AC50 in data set [1] (setting [8]), in data set [1] (setting [9]) and in data set [2] were 1.41 µM, 1.41 µM and 5.31 µM, respectively. Further, the viability at 48 h in “in vitro” (setting [7]) was 97.9%. In the data set “in vitro” (setting [7]), the viability at 48 h, 1 µM was found to be 97.9%.
With `CCN1CCN(Cc2ccc(NC(=O)c3cc(NC(=O)c4cnn(-c5ccccc5)c4N)cc(OC)c3)cc2C(F)(F)F)CC1` [MLS000911569-01], the activity at 1 µM in data set [1] (setting [3]) turned out to be 116%; in data set [1] (setting [4]) it was 92%. The activity at 3 µM turned out to be 116% in data set [1] (setting [5]) and 103% in data set [1] (setting [6]). Further, the AC50 in data set [2] was 2.11 µM. Also, the viability at 48 h, 1 µM in the data set “in vitro” (setting [7]) turned out to be 98%. Moreover, the viability at 48 h, 3 µM in the data set “in vitro” (setting [7]) was determined as 106%.
On to `CCOc1ccc(NC(=O)c2cc3ccccc3cc2O)cc1` [MLS000736677-01], for which the “Max Resp” value in data set [1] is “Decrease”. The AC50 in data set [1] (setting [8]) is 0.501 µM; in data set [1] (setting [9]), 0.501 µM; in data set [2], 5.31 µM. In addition, the viability at 48 h in the data set “in vitro” came out at 100%. Also, in “in vitro”, the viability at 48 h, 1 µM worked out at 100%.
Take `CCCc1cc(=O)oc2cc(C)cc(OCC(=O)Nc3ccccn3)c12` [MLS001160382-01]: the activity at 1 µM is 212% in data set [1] (setting [3]) and 140% in data set [1] (setting [4]). Besides, the activity at 3 µM in data set [1] (setting [5]) came to 42%; in data set [1] (setting [6]), 160%. In data set [2], the AC50 was found to be 2.11 µM. Besides, the viability at 48 h, 1 µM in the data set “in vitro” (setting [7]) stood at 97%. In the data set “in vitro” (setting [7]), the viability at 48 h, 3 µM came out at 111%.
For the compound `CCOC(=O)c1c(C)oc2c1C(=O)c1ccccc1C2=O` [MLS000684830-01], the figures for the activity at 1 µM in data set [1] (setting [3]) and in data set [1] (setting [4]) were 95% and 85%, respectively. Besides, the activity at 3 µM in data set [1] (setting [5]) is 72%; in data set [1] (setting [6]), 93%. Besides, the AC50 in data set [2] is 0.422 µM. The viability at 48 h, 1 µM in “in vitro” (setting [7]) was 105%. In “in vitro” (setting [7]), the viability at 48 h, 3 µM was 99%.
As to `O=C(CN1CCN(C(=O)c2ccco2)CC1)Nc1cc(Cl)ccc1Cl` [MLS000122513-01], in data set [1], the “Max Resp” value is given as “Inactive”. For the same compound, the AC50 in data set [2] is 5.96 µM. Moreover, in “in vitro” (setting [7]), the viability at 66 h came to 97.6%.
With `Cc1ccc(C)c(NC(=O)CN(C)C(=O)c2ccc(-c3cccc(C(F)(F)F)c3)o2)c1` [MLS001161354-01], the figures for the activity at 1 µM in data set [1] (setting [3]) and in data set [1] (setting [4]) were 171% and 168%, respectively. Moreover, the activity at 3 µM in data set [1] (setting [5]) was 154%; in data set [1] (setting [6]), 126%. Also, the AC50 in data set [2] came out at 2.11 µM. Besides, in “in vitro” (setting [7]), the viability at 48 h, 1 µM worked out at 98%. Further, the viability at 48 h, 3 µM in the data set “in vitro” (setting [7]) was determined as 102%.
Regarding `CC(C)COc1ccc(C(=O)N/C(=C\c2cccc([N+](=O)[O-])c2)C(=O)OC(C)C)cc1` [MLS000574251-01], the activity at 1 µM worked out at 90% in data set [1] (setting [3]) and 84% in data set [1] (setting [4]). In addition, the activity at 3 µM worked out at 65% in data set [1] (setting [5]) and 69% in data set [1] (setting [6]). For the same compound, in data set [2], the AC50 came to 0.531 µM. Besides, in “in vitro” (setting [7]), the viability at 48 h, 1 µM stood at 111%. Also, the viability at 48 h, 3 µM in the data set “in vitro” (setting [7]) worked out at 102%.
Regarding `Nc1cc[n+](CC(=O)c2ccc3c(c2)OCCO3)cc1` [MLS000391090-01], the “Max Resp” value in data set [1] is on record as “Inactive”. In addition, the AC50 in data set [2] was found to be 13.3 µM. In addition, in “in vitro” (setting [7]), the viability at 48 h amounted to 97.8% and the viability at 48 h, 1 µM stood at 97.8%.
On to `Oc1ccccc1Nc1nc(NCc2ccco2)c2ccccc2n1` [MLS000693437-01], for which the “Max Resp” value in data set [1] was “Inactive”. Moreover, the AC50 in data set [2] was determined as 2.99 µM. In “in vitro” (setting [7]), the viability at 48 h was found to be 95.6% and the viability at 48 h, 1 µM was determined as 95.6%.
Take `CC1CCCCN1S(=O)(=O)c1ccc(C(=O)Nc2ccccc2-c2nc3ccccc3[nH]2)cc1` (centres unmarked) [MLS000697052-01]: the AC50 in data set [1] (setting [8]) was 0.355 µM; in data set [1] (setting [9]), 0.355 µM; in data set [2] it was 7.5 µM. In addition, the viability at 66 h in “in vitro” (setting [7]) was determined as 104%.
For the compound `COc1ccc(S(=O)(=O)N2CCC3(CC2)OCCN3S(=O)(=O)c2c(C)cc(C)cc2C)cc1` [MLS001237293-01], the activity at 1 µM in data set [1] (setting [3]) stood at 88%; in data set [1] (setting [4]), 81%. Further, the activity at 3 µM in data set [1] (setting [5]) is 87%; in data set [1] (setting [6]), 75%. Further, the AC50 in data set [2] is 2.66 µM. Further, in “in vitro” (setting [7]), the viability at 48 h, 1 µM amounted to 108%. The viability at 48 h, 3 µM in “in vitro” (setting [7]) was determined as 103%.

These data come from paper PMC7822874, “Chemoprotective antimalarials identified through quantitative high-throughput screening of Plasmodium blood and liver stage parasites” (Scientific Reports, 2021).
